{"source": "patent US20250170105A1", "about": "“ASSOCIATION WITH ANTIBIOTIC ACTIVITY, PHARMACEUTICAL COMPOSITIONS CONTAINING IT AND THEIR USE IN THE TREATMENT OF INFECTIONS” (VETAGRO INTERNATIONAL S.R.L., priority 2022, published 2025)", "type_in_all_cases": "cell-based", "key": {"Streptococcus suis 701 [1]": {"test_system": "Streptococcus suis 701", "test": "Individual tests, microdilution MIC", "method": "(§1) Strains were stored at −80° C. in appropriate media with glycerol, thawed and cultured according to conventional practices.\n(§2) The ABs shown in Tables 2 and 3 below, all obtained from Aplha Aesar, were tested. The OAs used are shown in Tables 2 and 3 below, all obtained from Merck. The stock solutions were prepared appropriately and in appropriate way and media for the different strains and could contain 3.5% ethanol to increase solubility.\n(§3) The tests were conducted using the microdilution method in a 96-well plate to be microtitered with the medium and culture conditions appropriate for the strains. Bacterial strains (10^5-10^6 CFU/ml) were incubated with the compounds to be tested, while control strains, when necessary, were grown in media containing 3.5% ethanol to exclude an inhibitory effect of any ethanol present in the stock solutions. After incubation, MIC was defined as the lowest concentration resulting in zero absorbance at 630 nm, recorded with Varioskan® LUX Multimode Microplat Reader (Thermo Fisher Scientific). For each test, the percentage of inhibition (%) was calculated with respect to the relative control.\n(§4) ABs were tested in the range 64-0.13 ppm, OAs in the range […] and NICs in the range 7.5-0.06 nM."}, "Escherichia Coli K88 95 [2]": {"test_system": "Escherichia Coli K88 95", "test": "Individual tests, microdilution MIC", "conditions": "Escherichia coli", "method": "as §1, §2, §3, §4"}, "Streptococcus suis 702 [3]": {"test_system": "Streptococcus suis 702", "test": "Individual tests, microdilution MIC", "method": "as §1, §2, §3, §4"}, "Escherichia coli K88 97 [4]": {"test_system": "Escherichia coli K88 97", "test": "Individual tests, microdilution MIC", "conditions": "Escherichia coli", "method": "as §1, §2, §3, §4"}, "Streptococcus suis 701 [5]": {"test_system": "Streptococcus suis 701", "test": "Combination test, checkerboard, % inhibition", "conditions": "S. suis 701", "method": "as §1, §3\n(§5) After phase 1, the strains were tested with associations at sub-effective doses of AB and OA or NIC in a 2×2 checkerboard model. Specifically, two sub-effective doses of AB were associated with two sub-effective doses of OA or NIC (half and one-quarter of MICs) as shown in FIG. 1.\n(§6) The % indicate the percentage of inhibition (compounds alone and combinations).\n(§7) Tables 4 to 7 show the % of inhibition of the components of the associations alone, at the effective concentrations shown in Tables 2 and 3, and at the sub-effective concentrations (half and one-quarter of MICs), and the % of inhibition of the associations."}, "Escherichia Coli K88 95 [6]": {"test_system": "Escherichia Coli K88 95", "test": "Combination test, checkerboard, % inhibition", "conditions": "E. coli 95", "method": "as §1, §3, §5, §6, §7"}, "Streptococcus suis 702 [7]": {"test_system": "Streptococcus suis 702", "test": "Combination test, checkerboard, % inhibition", "conditions": "S. suis 702", "method": "as §1, §3, §5, §6, §7"}, "Escherichia coli K88 97 [8]": {"test_system": "Escherichia coli K88 97", "test": "Combination test, checkerboard, % inhibition", "conditions": "E. coli 97", "method": "as §1, §3, §5, §6, §7"}, "[9]": {"conditions": "Streptococcus suis, S. suis 701, read-out: MIC values"}, "[10]": {"conditions": "COLIK8895, E. coli 95, read-out: MIC values"}, "[11]": {"conditions": "Streptococcus suis, S. suis 702, read-out: MIC values"}, "[12]": {"conditions": "K8897, E. coli 97, read-out: MIC values"}, "[13]": {"conditions": "COLIK8895, read-out: MIC values"}}, "note": "Read-outs that look alike come from different tables or passages of the source.", "data": [{"compound": "CC1(C)S[C@@H]2[C@H](NC(=O)[C@H](N)c3ccc(O)cc3)C(=O)N2[C@H]1C(=O)O", "note": "[Amoxicillin]", "values": [{"measurement": "MIC", "setting": "Streptococcus suis 701 [1]; [9]", "result": 0.5, "unit": "µg/mL"}, {"measurement": "MIC", "setting": "Escherichia Coli K88 95 [2]; [10]", "result": "> 64", "unit": "µg/mL"}, {"measurement": "MIC", "setting": "Streptococcus suis 702 [3]; [11]", "result": 0.5, "unit": "µg/mL"}, {"measurement": "MIC", "setting": "Escherichia coli K88 97 [4]; [12]", "result": "> 64", "unit": "µg/mL"}]}, {"compound": "CC1(C)S[C@@H]2[C@H](NC(=O)[C@H](N)c3ccccc3)C(=O)N2[C@H]1C(=O)O", "note": "[Ampicillin]", "values": [{"measurement": "MIC", "setting": "Streptococcus suis 701 [1]; [9]", "result": 0.25, "unit": "µg/mL"}, {"measurement": "MIC", "setting": "Streptococcus suis 702 [3]; [11]", "result": 0.25, "unit": "µg/mL"}]}, {"compound": "O=C(O)c1ccccc1", "note": "[Benzoic Acid, benzoic acid]", "values": [{"measurement": "% inhibition", "setting": "Streptococcus suis 701 [5]; BEN 12.5 mM alone", "result": 22, "unit": "%"}, {"measurement": "% inhibition", "setting": "Streptococcus suis 701 [5]; BEN 25 mM alone", "result": 51, "unit": "%"}, {"measurement": "% inhibition", "setting": "Escherichia Coli K88 95 [6]; BEN 12.5 mM alone", "result": 63, "unit": "%"}, {"measurement": "% inhibition", "setting": "Escherichia Coli K88 95 [6]; BEN 25 mM alone", "result": 90, "unit": "%"}, {"measurement": "% inhibition", "setting": "Streptococcus suis 702 [7]; BEN 6.25 mM alone", "result": 21, "unit": "%"}, {"measurement": "% inhibition", "setting": "Streptococcus suis 702 [7]; BEN 12.5 mM alone", "result": 39, "unit": "%"}, {"measurement": "% inhibition", "setting": "Escherichia coli K88 97 [8]; BEN 12.5 mM alone", "result": 79, "unit": "%"}, {"measurement": "% inhibition", "setting": "Escherichia coli K88 97 [8]; BEN 25 mM alone", "result": 97, "unit": "%"}, {"measurement": "MIC", "setting": "Streptococcus suis 701 [1]; Streptococcus suis, 701, read-out: MIC values", "result": 50, "unit": "mM"}, {"measurement": "MIC", "setting": "Escherichia Coli K88 95 [2]; [13]", "result": 50, "unit": "mM"}, {"measurement": "MIC", "setting": "Streptococcus suis 702 [3]; Streptococcus suis, 702, read-out: MIC values", "result": 25, "unit": "mM"}, {"measurement": "MIC", "setting": "Escherichia coli K88 97 [4]; K8897, read-out: MIC values", "result": 50, "unit": "mM"}]}, {"compound": "CO/N=C(\\C(=O)N[C@@H]1C(=O)N2C(C(=O)O)=C(CSC(=O)c3ccco3)CS[C@H]12)c1csc(N)n1", "note": "[Ceftiofur]", "values": [{"measurement": "MIC", "setting": "Streptococcus suis 701 [1]; [9]", "result": 0.5, "unit": "µg/mL"}, {"measurement": "MIC", "setting": "Escherichia Coli K88 95 [2]; [10]", "result": 1, "unit": "µg/mL"}, {"measurement": "MIC", "setting": "Streptococcus suis 702 [3]; [11]", "result": 0.5, "unit": "µg/mL"}, {"measurement": "MIC", "setting": "Escherichia coli K88 97 [4]; [12]", "result": 2, "unit": "µg/mL"}]}, {"compound": "O=C(O)CC(O)(CC(=O)O)C(=O)O", "note": "[Citric acid, citric acid]", "values": [{"measurement": "% inhibition", "setting": "Streptococcus suis 701 [5]; CIT 12.5 mM alone", "result": 18, "unit": "%"}, {"measurement": "% inhibition", "setting": "Streptococcus suis 701 [5]; CIT 25 mM alone", "result": 36, "unit": "%"}, {"measurement": "% inhibition", "setting": "Streptococcus suis 702 [7]; CIT 6.25 mM alone", "result": 12, "unit": "%"}, {"measurement": "% inhibition", "setting": "Streptococcus suis 702 [7]; CIT 12.5 mM alone", "result": 43, "unit": "%"}, {"measurement": "MIC", "setting": "Streptococcus suis 701 [1]; [9]", "result": 50, "unit": "mM"}, {"measurement": "MIC", "setting": "Escherichia Coli K88 95 [2]; [10]", "result": "> 100", "unit": "mM"}, {"measurement": "MIC", "setting": "Streptococcus suis 702 [3]; [11]", "result": 25, "unit": "mM"}, {"measurement": "MIC", "setting": "Escherichia coli K88 97 [4]; [12]", "result": "> 100", "unit": "mM"}]}, {"compound": "C[C@H]1c2cccc(O)c2C(=O)C2=C(O)[C@]3(O)C(=O)C(C(N)=O)=C(O)[C@@H](N(C)C)[C@@H]3[C@@H](O)[C@@H]21", "note": "[Doxycycline]", "values": [{"measurement": "MIC", "setting": "Streptococcus suis 701 [1]; [9]", "result": 16, "unit": "µg/mL"}, {"measurement": "MIC", "setting": "Streptococcus suis 702 [3]; [11]", "result": 0.5, "unit": "µg/mL"}]}, {"compound": "CCN1CCN(c2cc3c(cc2F)c(=O)c(C(=O)O)cn3C2CC2)CC1", "note": "[Enrofloxacin]", "values": [{"measurement": "MIC", "setting": "Streptococcus suis 701 [1]; [9]", "result": 0.5, "unit": "µg/mL"}, {"measurement": "MIC", "setting": "Escherichia Coli K88 95 [2]; [10]", "result": 2, "unit": "µg/mL"}, {"measurement": "MIC", "setting": "Streptococcus suis 702 [3]; [11]", "result": 0.5, "unit": "µg/mL"}, {"measurement": "MIC", "setting": "Escherichia coli K88 97 [4]; [12]", "result": 2, "unit": "µg/mL"}]}, {"compound": "C=CCc1ccc(O)c(OC)c1", "note": "[Eugenolo, eugenol]", "values": [{"measurement": "% inhibition", "setting": "Streptococcus suis 701 [5]; EUG 0.94 mM alone", "result": 6, "unit": "%"}, {"measurement": "% inhibition", "setting": "Streptococcus suis 701 [5]; EUG 1.87 mM alone", "result": 27, "unit": "%"}, {"measurement": "% inhibition", "setting": "Escherichia Coli K88 95 [6]; EUG 0.94 mM alone", "result": 31, "unit": "%"}, {"measurement": "% inhibition", "setting": "Escherichia Coli K88 95 [6]; EUG 1.87 mM alone", "result": 44, "unit": "%"}, {"measurement": "% inhibition", "setting": "Streptococcus suis 702 [7]; EUG 0.94 mM alone", "result": 9, "unit": "%"}, {"measurement": "% inhibition", "setting": "Streptococcus suis 702 [7]; EUG 1.87 mM alone", "result": 12, "unit": "%"}, {"measurement": "% inhibition", "setting": "Escherichia coli K88 97 [8]; EUG 0.94 mM alone", "result": 26, "unit": "%"}, {"measurement": "% inhibition", "setting": "Escherichia coli K88 97 [8]; EUG 1.87 mM alone", "result": 34, "unit": "%"}, {"measurement": "MIC", "setting": "Streptococcus suis 701 [1]; [9]", "result": 3.75, "unit": "mM"}, {"measurement": "MIC", "setting": "Escherichia Coli K88 95 [2]; [10]", "result": 3.75, "unit": "mM"}, {"measurement": "MIC", "setting": "Streptococcus suis 702 [3]; [11]", "result": 3.75, "unit": "mM"}, {"measurement": "MIC", "setting": "Escherichia coli K88 97 [4]; [12]", "result": 3.75, "unit": "mM"}]}, {"compound": "CS(=O)(=O)c1ccc([C@@H](O)[C@@H](CF)NC(=O)C(Cl)Cl)cc1", "note": "[Florfenicol]", "values": [{"measurement": "MIC", "setting": "Streptococcus suis 701 [1]; [9]", "result": 2, "unit": "µg/mL"}, {"measurement": "MIC", "setting": "Escherichia Coli K88 95 [2]; [10]", "result": 16, "unit": "µg/mL"}, {"measurement": "MIC", "setting": "Streptococcus suis 702 [3]; [11]", "result": 2, "unit": "µg/mL"}, {"measurement": "MIC", "setting": "Escherichia coli K88 97 [4]; [12]", "result": "> 64", "unit": "µg/mL"}]}, {"compound": "CCCCCC(=O)O", "note": "[Hexanoic acid, hexanoic acid]", "values": [{"measurement": "% inhibition", "setting": "Escherichia Coli K88 95 [6]; HEX 12.5 mM alone", "result": 76, "unit": "%"}, {"measurement": "% inhibition", "setting": "Escherichia Coli K88 95 [6]; HEX 25 mM alone", "result": 83, "unit": "%"}, {"measurement": "% inhibition", "setting": "Escherichia coli K88 97 [8]; HEX 12.5 mM alone", "result": 65, "unit": "%"}, {"measurement": "% inhibition", "setting": "Escherichia coli K88 97 [8]; HEX 25 mM alone", "result": 83, "unit": "%"}, {"measurement": "MIC", "setting": "Escherichia Coli K88 95 [2]; [13]", "result": 50, "unit": "mM"}, {"measurement": "MIC", "setting": "Escherichia coli K88 97 [4]; K8897, read-out: MIC values", "result": 50, "unit": "mM"}]}]}
